Consider 14 compounds from US9089139B2, “Agri-horticultural pest control compositions comprising 4-(3-butynyl)aminopyrimidine derivatives” (SDS Biotech K. K., priority 2011, dated 2015).

For one test, the system named is Aphis gossypii. Description: Test 3: insecticidal effect on Aphis gossypii (mortality rate). Format: in vivo. The note with it: individual active compound. An excerpt: (§1) The expected efficacies of the combinations of the individual active compounds can be determined using Colby's formula, which is described below [Colby, S. R. “Calculating synergistic and antagonistic responses of herbicide combinations,” Weeds 15, 20-22 (1967)]: Colby's formula: E=A+B−(A×B/100) E is the predicted efficacy (control index) with reference to the untreated control when using the mixture of the active compound X at the concentration x and the active compound Y at the concentration y; A is the efficacy (control index) with respect to the untreated control when using the active compound X at the concentration x; B is the efficacy (control index) with respect to the untreated control when using the active compound […] at the concentration y.
Invention compounds and the existing insecticidal active compounds shown in Table 7 (hereinbelow, the compound names are identified by associated letters of the alphabet) were diluted with water to predetermined concentrations so that they would serve as active ingredients. Cucumber leaves with a diameter of 3 cm were placed on plastic cups filled with 0.5% soft agar and five adult aphids were released to feed on the leaves. After standing overnight, the adult insects were removed and the number of nymph as an offspring was counted; each of the prepared liquid samples of insecticide was sprayed in 0.4 ml portions and two days later, the number of dead insects was countd to calculate the mortality rate. The expected efficacies of the combinations of the individual active compounds were calculated by Colby's formula.

Test [1] concerns Pseudoperonospora cubensis. Description: Control effect against Pseudoperonospora cubensis on cucumber seedlings (control index as in Test 1). To be noted: Pseudoperonospora cubensis, 72 h; individual active compound, test concentration 0.05 ppm; read-out: Observed value Control index. Format: in vivo.
Description: as §1
(§2) Potted young seedlings of cucumber (variety: SAGAMI HANJIRO; in two-leaf stage) were sprayed with invention compounds formulated in accordance with Preparations and the existing antimicrobial active compounds listed in Table 3 (all compounds are identified by associated letters of the alphabet) after they were diluted with water to predetermined concentrations so that they would serve as active compounds; a spray gun was used to provide a spray rate of 15 ml per pot. After air-drying, the seedlings were inoculated with conida of Sphaerotheca fuliginea by spraying a suspension of the conida. Thereafter, the seedlings were cultivated for 14 days in a greenhouse and the percentage of diseased area was investigated for each leaf; based on the result of this investigation, the control index was calculated using the following formula: Control index={(percentage of diseased area on the untreated control−percentage of diseased area on treated sample)/percentage of diseased area on the untreated control}×100
Potted young seedlings of cucumber (variety: SAGAMI HANJIRO; in two-and-a-half leaf stage) were sprayed with invention agri-horticulatural pest control compositions formulated in accordance with Preparations and the existing antimicrobial active compounds listed in Table 5 (all compounds are identified by associated letters of the alphabet) after they were diluted with water to predetermined concentrations so that they would serve as active compounds; a spray gun was used to provide a spray rate of 15 ml per pot. After air-drying, the seedlings were inoculated with conida of Pseudoperonospora cubensis by spraying a suspension of the conida. Immediately thereafter, the seedlings were held for a day under the conditions of 21° C. and 100% humidity. The seedlings were then placed at room temperature and 3 days later, the percentage of diseased area was investigated for each leaf; based on the result of this investigation, the control index was calculated as in Test 1.

For a further test, the system named is Sphaerotheca fuliginea. Briefly: Test 1: control effect against powdery mildew on cucumber (control index). It counts as in vivo, Sphaerotheca fuliginea on cucumber (variety: SAGAMI HANJIRO). The note with it: Podosphaera fuliginea, 336 h; individual active compound, test concentration 0.5 ppm.
Description: as §1, §2

The mark [2] stands for this setting: Aphis gossypii, 48 h, test concentration 0.1 ppm, read-out: Observed value Mortality rate.

Each structure is given as a SMILES string.

With `O=[N+]([O-])NC1=NCCN1Cc1ccc(Cl)nc1` [Q: Imidacloprid, imidacloprid, reference compound], the pest or weed control at 0.01 ppm in the test with Aphis gossypii (Aphis gossypii, 48 h, test concentration 0.01 ppm, read-out: Observed value Mortality rate) was 50%.

Regarding `CCc1nn(C)c(C(=O)NCc2ccc(Oc3ccc(C)cc3)cc2)c1Cl` [R: Tolfenpyrad, tolfenpyrad, reference compound], the pest or weed control at 0.5 ppm in the test on Aphis gossypii (Aphis gossypii, 48 h, test concentration 0.5 ppm, read-out: Observed value Mortality rate) was determined as 48%.

`CC1(C)[C@H](C(=O)O[C@H](C#N)c2cccc(Oc3ccccc3)c2)[C@@H]1/C=C\C(=O)OC(C(F)(F)F)C(F)(F)F` [S: Acrinathrin]: the “Observed value Mortality rate” value with Aphis gossypii (test concentration 0.1 ppm) is recorded as 35.

`N#CCNC(=O)c1cnccc1C(F)(F)F` [T: Flonicamid, flonicamid, reference compound]: in the test with Aphis gossypii (test concentration 1 ppm), the “Observed value Mortality rate” value came to 43.

Regarding `CC(=O)N1C(=O)N(NCc2cccnc2)Cc2cc(C(F)(C(F)(F)F)C(F)(F)F)ccc21` [U: Pyrifluquinazon, pyrifluquinazon, reference compound], in the test with Aphis gossypii (test concentration 0.01 ppm), the “Observed value Mortality rate” value is listed as 40.

Regarding `FCc1ccccc1C#CCCNc1ncnc2ccccc12` [compound 99], in test [1], the pest or weed control at 0.05 ppm was 46%. Moreover, in the test with Sphaerotheca fuliginea, the pest or weed control at 0.5 ppm was 53%. The pest or weed control at 0.1 ppm in the test on Aphis gossypii (setting [2]) worked out at 44%.

For the compound `FC(F)c1ccccc1C#CCCNc1ncnc2ccccc12` [compound 100], in test [1], the pest or weed control at 0.05 ppm worked out at 42%. In the test on Sphaerotheca fuliginea, the pest or weed control at 0.5 ppm came to 55%. In the test on Aphis gossypii (setting [2]), the pest or weed control at 0.1 ppm amounted to 40%.

As for `FC(F)(F)c1ccccc1C#CCCNc1ncnc2ccccc12` [compound 101], in test [1], the pest or weed control at 0.05 ppm amounted to 38%. Also, the pest or weed control at 0.5 ppm in the test with Sphaerotheca fuliginea was 56%. Also, the pest or weed control at 0.1 ppm in the test with Aphis gossypii (setting [2]) is 36%.

In the case of `COCc1ccccc1C#CCCNc1ncnc2ccccc12` [compound 133], in test [1], the pest or weed control at 0.05 ppm worked out at 41%. For the same compound, in the test with Sphaerotheca fuliginea, the pest or weed control at 0.5 ppm is 49%. Besides, in the test with Aphis gossypii (setting [2]), the pest or weed control at 0.1 ppm came out at 39%.

For the compound `COCc1cc(F)ccc1C#CCCNc1ncnc2ccccc12` [compound 139], in test [1], the pest or weed control at 0.05 ppm was found to be 43%. Moreover, the pest or weed control at 0.5 ppm with Sphaerotheca fuliginea came to 51%. In the test with Aphis gossypii (setting [2]), the pest or weed control at 0.1 ppm turned out to be 41%.

Regarding `COCc1cc(Cl)ccc1C#CCCNc1ncnc2ccccc12` [compound 140], the pest or weed control at 0.05 ppm in test [1] is 45%. Also, in the test with Sphaerotheca fuliginea, the pest or weed control at 0.5 ppm was determined as 48%. For the same compound, the pest or weed control at 0.1 ppm with Aphis gossypii (setting [2]) came out at 43%.

For `COCc1cc(C)ccc1C#CCCNc1ncnc2ccccc12` [compound 145], in test [1], the pest or weed control at 0.05 ppm is 37%. In the test on Sphaerotheca fuliginea, the pest or weed control at 0.5 ppm was 45%. Moreover, the pest or weed control at 0.1 ppm in the test with Aphis gossypii (setting [2]) came out at 35%.

Turning to `OCC1=C(C#CCCNc2ncnc3ccccc23)CCCC1` [compound 390], the pest or weed control at 0.05 ppm in test [1] came to 38%. In addition, the pest or weed control at 0.5 ppm in the test with Sphaerotheca fuliginea came to 51%. In addition, in the test with Aphis gossypii (setting [2]), the pest or weed control at 0.1 ppm was 41%.

In the case of `FCC1=C(C#CCCNc2ncnc3ccccc23)CCCC1` [compound 391], the pest or weed control at 0.05 ppm in test [1] is 41%. Besides, the pest or weed control at 0.5 ppm in the test with Sphaerotheca fuliginea came to 48%. Also, the pest or weed control at 0.1 ppm with Aphis gossypii (setting [2]) was 43%.
